The target in one experiment is T1, IRE1α (Homo sapiens, UniProt O75460).
T1 construct: purchased Signal Chem E31-11G
In words: Biochemical assay: inhibition of RNase activity of IRE1α. As to conditions: enzyme 0.325 nM, substrate 100 nM, 20 minutes. A digest of the protocol: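 RNase cleavage monitored as dequenching of a 5′ Alexa Fluor 647/3′ quencher RNA oligo (100 nM), stopped with 5 M urea after 20 min at room temperature. Enzyme 0.325 nM, preceded by 30 min compound pre-incubation; buffer Tris/MgCl2/KCl/DTT/Tween, 4% DMSO final. IC50 from curve fit of % inhibition.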

The subject of experiment [1] is ARPE-19 cells stably expressing XBP1 (a.a. 1-376). The experiment can be described thus: Cellular XBP1 splicing assay (NanoLuc luciferase, thapsigargin). As to conditions: thapsigargin 150 nM. It is filed as cell-based. An outline of the steps:
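ARPE-19 cells carrying an XBP1(1-376)-NanoLuc splicing reporter were pretreated with compound (10-point ½-log series, 0.117% DMSO) for 30 min, then stressed with 150 nM thapsigargin for 4 h at 37° C. Luminescence was read, and IC50 values came from sigmoidal fits of percent inhibition of control.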

The structures appear in SMILES notation.

T1 sequence (O75460 468-977 limits assumed): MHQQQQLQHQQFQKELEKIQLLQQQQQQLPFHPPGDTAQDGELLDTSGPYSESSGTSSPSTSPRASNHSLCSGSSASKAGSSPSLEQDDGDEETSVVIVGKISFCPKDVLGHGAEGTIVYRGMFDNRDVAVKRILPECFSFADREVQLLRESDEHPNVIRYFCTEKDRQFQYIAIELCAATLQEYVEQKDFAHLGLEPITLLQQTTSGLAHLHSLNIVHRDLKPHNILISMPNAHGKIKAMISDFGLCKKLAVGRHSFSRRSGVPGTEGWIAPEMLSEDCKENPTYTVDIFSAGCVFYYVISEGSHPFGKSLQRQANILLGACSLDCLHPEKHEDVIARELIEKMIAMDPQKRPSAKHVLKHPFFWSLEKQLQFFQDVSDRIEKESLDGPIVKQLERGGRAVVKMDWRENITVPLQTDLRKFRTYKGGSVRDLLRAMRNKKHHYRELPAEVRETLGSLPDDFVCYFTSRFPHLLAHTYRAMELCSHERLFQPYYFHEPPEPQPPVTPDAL

Turning to `Cc1ccc(F)c(S(=O)(=O)Nc2ccc(-c3nn(C(C)C)c4c(C5=CCC(NC6COC6)CC5)cnc(N)c34)cc2F)c1` (racemic) [racemic mixture of B16 & B17, N-(4-(4-amino-1-isopropyl-7-(4-(oxetan-3-ylamino)cyclohex-1-en-1-yl)-1H-pyrazolo[4,3-c]pyridin-3-yl)-2-fluorophenyl)-2-fluoro-5-methylbenzenesulfonamide], the IC50 (commonly the concentration that gives 50% inhibition) against IRE1α was 13 nM; in experiment [1] (Homo sapiens, ARPE-19, 4 h), 94 nM.
For `CCn1nc(-c2ccc(NS(=O)(=O)c3cc(C)ccc3F)c(F)c2)c2c(N)ncc(C3=CCC(NC4COC4)CC3)c21` (single isomer, unassigned) [Compound B35, N-(4-(4-amino-1-ethyl-7-(4-(oxetan-3-ylamino)cyclohex-1-en-1-yl)-1H-pyrazolo[4,3-c]pyridin-3-yl)-2-fluorophenyl)-2-fluoro-5-methylbenzenesulfonamide], the IC50 was determined as 14 nM at IRE1α and 52 nM in experiment [1] (4 hour).
On to `COCCNC1CC=C(c2cnc(N)c3c(-c4ccc(NS(=O)(=O)Cc5ccccc5Cl)c(F)c4)nn(C(C)C)c23)CC1` (single isomer, unassigned) [Compound B54, N-(4-(4-amino-1-isopropyl-7-(4-((2-methoxyethyl)amino)cyclohex-1-en-1-yl)-1H-pyrazolo[4,3-c]pyridin-3-yl)-2-fluorophenyl)-1-(2-chlorophenyl)methanesulfonamide], for which the IC50 on IRE1α came out at 2 nM; in experiment [1] (4 hour), 28 nM.
For the molecule `CC(C)n1nc(-c2ccc(NS(=O)(=O)c3ccccc3F)c(F)c2)c2c(N)ncc(C3=CCC(NC4COC4)CC3)c21` (racemic) [racemic mixture of B58 & B59, N-(4-(4-amino-1-isopropyl-7-(4-(oxetan-3-ylamino)cyclohex-1-en-1-yl)-1H-pyrazolo[4,3-c]pyridin-3-yl)-2-fluorophenyl)-2-fluorobenzenesulfonamide], the concentration for half-maximal inhibition (IC50) on IRE1α worked out at 61 nM; in experiment [1] (Homo sapiens, ARPE-19, 4 h), 92 nM.
For `CC(C)n1nc(-c2ccc(NS(=O)(=O)c3ccccc3Cl)c(F)c2)c2c(N)ncc(C3=CCC(NC4COC4)CC3)c21` (racemic) [racemic mixture of B56 & B57, N-(4-(4-amino-1-isopropyl-7-(4-(oxetan-3-ylamino)cyclohex-1-en-1-yl)-1H-pyrazolo[4,3-c]pyridin-3-yl)-2-fluorophenyl)-2-chlorobenzenesulfonamide], in that order: 26 nM and 52 nM.
For `COCCN[C@H]1CC[C@H](c2cnc(N)c3c(-c4cc(F)c(NS(=O)(=O)c5cccc(C(F)(F)F)c5)cc4F)nn(C(C)C)c32)CC1` [Compound A30, N-(4-(4-amino-1-isopropyl-7-((1r,4r)-4-((2-methoxyethyl)amino)cyclohexyl)-1H-pyrazolo[4,3-c]pyridin-3-yl)-2,5-difluorophenyl)-3-(trifluoromethyl)benzenesulfonamide], in that order: 3.8 nM and 93 nM.
Consider `COCCNC1CC=C(c2cnc(N)c3c(-c4ccc(NS(=O)(=O)c5ccccc5Cl)c(F)c4)nn(C(C)C)c23)CC1` (single isomer, unassigned) [Compound B53, N-(4-(4-amino-1-isopropyl-7-(4-((2-methoxyethyl)amino)cyclohex-1-en-1-yl)-1H-pyrazolo[4,3-c]pyridin-3-yl)-2-fluorophenyl)-2-chlorobenzenesulfonamide], for which the half-inhibitory concentration (IC50) was 17 nM at IRE1α and 70 nM in experiment [1] (4 hour).
On to `CCn1nc(-c2ccc(NS(=O)(=O)c3cc(OC)ccc3Cl)c(F)c2)c2c(N)ncc(C3=CCC(NC4COC4)CC3)c21` (stereo not shown) [Compound B37, N-(4-(4-amino-1-ethyl-7-(4-(oxetan-3-ylamino)cyclohex-1-en-1-yl)-1H-pyrazolo[4,3-c]pyridin-3-yl)-2-fluorophenyl)-2-chloro-5-methoxybenzenesulfonamide], for which the half-maximal inhibitory concentration (IC50) on IRE1α amounted to 20 nM; in experiment [1] (Homo sapiens, ARPE-19, 4 h) it was 74 nM.
`CCn1nc(-c2ccc(NS(=O)(=O)c3ccccc3Cl)c(F)c2)c2c(N)ncc(C3=CCC(NC4COC4)CC3)c21` (single isomer, unassigned) [Compound B61, N-(4-(4-amino-1-ethyl-7-(4-(oxetan-3-ylamino)cyclohex-1-en-1-yl)-1H-pyrazolo[4,3-c]pyridin-3-yl)-2-fluorophenyl)-2-chlorobenzenesulfonamide]: the IC50 stood at 34 nM against IRE1α and 110 nM in experiment [1] (4 hour).
For the molecule `COCCN[C@H]1CC[C@H](c2cnc(N)c3c(-c4cc(F)c(NS(=O)(=O)c5cc(OC(F)F)ccc5F)cc4F)nn(C(C)C)c32)CC1` [Compound A5, N-(4-(4-amino-1-isopropyl-7-((1r,4r)-4-((2-methoxyethyl)amino)cyclohexyl)-1H-pyrazolo[4,3-c]pyridin-3-yl)-2,5-difluorophenyl)-5-(difluoromethoxy)-2-fluorobenzenesulfonamide], the IC50 was determined as 1.9 nM on IRE1α and 25 nM in experiment [1] (Homo sapiens, ARPE-19, 4 h).
Consider `COCCN[C@H]1CC[C@H](c2cnc(N)c3c(-c4cc(F)c(NS(=O)(=O)c5cc(C#N)ccc5F)cc4F)nn(C(C)C)c32)CC1` [Compound A21, N-(4-(4-amino-1-isopropyl-7-((1r,4r)-4-((2-methoxyethyl)amino)cyclohexyl)-1H-pyrazolo[4,3-c]pyridin-3-yl)-2,5-difluorophenyl)-5-cyano-2-fluorobenzenesulfonamide], for which the concentration for half-maximal inhibition (IC50) against IRE1α stood at 4.7 nM; in experiment [1] (Homo sapiens, ARPE-19, 4 h), 3800 nM.
Take `CC(C)n1nc(-c2cc(F)c(NS(=O)(=O)c3ccccc3Cl)cc2F)c2c(N)ncc(C3=CCC(NC4COC4)CC3)c21` (racemic) [racemic mixture of B10 & B11, N-(4-(4-amino-1-isopropyl-7-(4-(oxetan-3-ylamino)cyclohex-1-en-1-yl)-1H-pyrazolo[4,3-c]pyridin-3-yl)-2,5-difluorophenyl)-2-chlorobenzenesulfonamide]: the IC50 was 60 nM at IRE1α and 160 nM in experiment [1] (Homo sapiens, ARPE-19, 4 h).
With `CCOc1ccc(F)c(S(=O)(=O)Nc2cc(F)c(-c3nn(C(C)C)c4c3c(N)ncc4[C@H]3CC[C@H](NCCOC)CC3)cc2F)c1` [Compound A8, N-(4-(4-amino-1-isopropyl-7-((1r,4r)-4-((2-methoxyethyl)amino)cyclohexyl)-1H-pyrazolo[4,3-c]pyridin-3-yl)-2,5-difluorophenyl)-5-ethoxy-2-fluorobenzenesulfonamide], the half-maximal inhibitory concentration (IC50) on IRE1α is 1.9 nM; in experiment [1] (Homo sapiens, ARPE-19, 4 h), 3.9 nM.
As to `CCn1nc(-c2ccc(NS(=O)(=O)c3cc(Cl)ccc3F)c(F)c2)c2c(N)ncc(C3=CCC(NC4COC4)CC3)c21` (single isomer, unassigned) [Compound B38, N-(4-(4-amino-1-ethyl-7-(4-(oxetan-3-ylamino)cyclohex-1-en-1-yl)-1H-pyrazolo[4,3-c]pyridin-3-yl)-2-fluorophenyl)-5-chloro-2-fluorobenzenesulfonamide], the concentration for half-maximal inhibition (IC50) against IRE1α is 5.6 nM; in experiment [1] (4 hour) it was 97 nM.
Consider `CCn1nc(-c2cc(F)c(NS(=O)(=O)Cc3ccccc3Cl)cc2F)c2c(N)ncc(C3=CCC(NC4COC4)CC3)c21` (stereo not shown) [Compound B32, N-(4-(4-amino-1-ethyl-7-(4-(oxetan-3-ylamino)cyclohex-1-en-1-yl)-1H-pyrazolo[4,3-c]pyridin-3-yl)-2,5-difluorophenyl)-1-(2-chlorophenyl)methanesulfonamide], for which the IC50 at IRE1α was 21 nM; in experiment [1] (Homo sapiens, ARPE-19, 4 h), 340 nM.
`CC(F)CNC1CC=C(c2cnc(N)c3c(-c4ccc(NS(=O)(=O)c5ccccc5Cl)c(F)c4)nn(C(C)C)c23)CC1` (single isomer, unassigned) [Compound B47, N-(4-(4-amino-7-(4-((2-fluoropropyl)amino)cyclohex-1-en-1-yl)-1-isopropyl-1H-pyrazolo[4,3-c]pyridin-3-yl)-2-fluorophenyl)-2-chlorobenzenesulfonamide]: the values for the IC50 (against IRE1α; in experiment [1] (4 hour)) were 4.5 nM and 17 nM, respectively.
For the molecule `COCCN[C@H]1CC[C@H](c2cnc(N)c3c(-c4cc(F)c(NS(=O)(=O)c5cc(OC)ccc5F)cc4F)nn(C(C)C)c32)CC1` [Compound A28], the 50% inhibitory concentration (IC50) at IRE1α turned out to be 2.9 nM; in experiment [1] (Homo sapiens, ARPE-19, 4 h) it was 6.9 nM.
Consider `Cc1ccc(F)c(S(=O)(=O)Nc2ccc(-c3nn(C(C)C)c4c(C5=CCC(NC6COC6)CC5)cnc(N)c34)cc2F)c1` (single isomer, unassigned) [Compound B16, N-(4-(4-amino-1-isopropyl-7-(4-(oxetan-3-ylamino)cyclohex-1-en-1-yl)-1H-pyrazolo[4,3-c]pyridin-3-yl)-2-fluorophenyl)-2-fluoro-5-methylbenzenesulfonamide], for which the IC50 came to 13 nM on IRE1α and 110 nM in experiment [1] (4 hour).
As to `COCCNC1CC=C(c2cnc(N)c3c(-c4ccc(NS(=O)(=O)Cc5ccccc5Cl)c(F)c4)nn(C(C)C)c23)CC1` (single isomer, unassigned) [Compound B55, N-(4-(4-amino-1-isopropyl-7-(4-((2-methoxyethyl)amino)cyclohex-1-en-1-yl)-1H-pyrazolo[4,3-c]pyridin-3-yl)-2-fluorophenyl)-1-(2-chlorophenyl)methanesulfonamide], the IC50 at IRE1α worked out at 0.9 nM; in experiment [1] (4 hour) it was 9 nM.
Regarding `COCCNC1CC=C(c2cnc(N)c3c(-c4ccc(NS(=O)(=O)c5ccccc5Cl)c(F)c4)nn(C(C)C)c23)CC1` (single isomer, unassigned) [Compound B52, N-(4-(4-amino-1-isopropyl-7-(4-((2-methoxyethyl)amino)cyclohex-1-en-1-yl)-1H-pyrazolo[4,3-c]pyridin-3-yl)-2-fluorophenyl)-2-chlorobenzenesulfonamide], the figures for the IC50 (against IRE1α; in experiment [1] (4 hour)) were 7.8 nM and 9.8 nM, respectively.

These data come from US20220153734A1, “Pyrazolopyridine Compounds For IRE1 Inhibition” (Optikira, LLC, priority 2019, published 2022).
